Results reported in ChEMBL document CHEMBL1201862, “PubChem BioAssay data set” (2004).
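Assay format: 96-well plates, 48-hour exposure. At the GI50, growth is halved.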 Calls of active or inactive are those of the source. Rule as the data show it: active = GI50 up to about 1.1 µM and inactive = higher.

What was measured:
Assay in all cases: NCI tumour cell line growth inhibition, 48 h
[1] = test system: 786-0
[2] = test system: A498
[3] = test system: ACHN
[4] = test system: CCRF-CEM
[5] = test system: HCC 2998
[6] = test system: HOP-92
[7] = test system: HT-29
[8] = test system: IGROV-1
[9] = test system: LOX IMVI
[10] = test system: M14
[11] = test system: NCI-H460
[12] = test system: OVCAR-3
[13] = test system: OVCAR-4
[14] = test system: RPMI-8226
[15] = test system: RXF 393
[16] = test system: SF-295
[17] = test system: SF-539
[18] = test system: SNB-75
[19] = test system: UACC-62
[20] = test system: HCT-15

Compound	GI50 [1]	GI50 [2]	GI50 [3]	GI50 [4]	GI50 [5]	GI50 [6]	GI50 [7]	GI50 [8]	GI50 [9]	GI50 [10]	GI50 [11]	GI50 [12]	GI50 [13]	GI50 [14]	GI50 [15]	GI50 [16]	GI50 [17]	GI50 [18]	GI50 [19]	GI50 [20] [µM]
CCCCC(=O)Oc1ccc2c(C)cc(=O)oc2c1	> 100 µM (inactive)	> 100 µM (inactive)	> 100 µM (inactive)	> 100 µM (inactive)	88.9 µM (inactive)	26.2 µM (inactive)	> 100 µM (inactive)	> 100 µM (inactive)	> 100 µM (inactive)	> 100 µM (inactive)	> 100 µM (inactive)	> 100 µM (inactive)	> 100 µM (inactive)	> 100 µM (inactive)	> 100 µM (inactive)	> 100 µM (inactive)	> 100 µM (inactive)	> 100 µM (inactive)	> 100 µM (inactive)	–
Cc1cccc(Nc2cnc(N)nc2N)c1	> 100 µM (inactive)	> 100 µM (inactive)	> 100 µM (inactive)	> 100 µM (inactive)	> 100 µM (inactive)	> 100 µM (inactive)	> 100 µM (inactive)	> 100 µM (inactive)	> 100 µM (inactive)	> 100 µM (inactive)	–	> 100 µM (inactive)	> 100 µM (inactive)	> 100 µM (inactive)	98.9 µM (inactive)	> 100 µM (inactive)	> 100 µM (inactive)	83 µM (inactive)	> 100 µM (inactive)	> 100
CCN(CC)CCn1c2cc3c(cc2c(=O)c2cccnc21)OCO3	4.45 µM (inactive)	3.91 µM (inactive)	3.52 µM (inactive)	5.31 µM (inactive)	9.04 µM (inactive)	6.95 µM (inactive)	4.04 µM (inactive)	4.88 µM (inactive)	3.71 µM (inactive)	4.95 µM (inactive)	3.06 µM (inactive)	5.14 µM (inactive)	5.36 µM (inactive)	3.93 µM (inactive)	5.86 µM (inactive)	4.71 µM (inactive)	4.92 µM (inactive)	3.83 µM (inactive)	8.75 µM (inactive)	3.72
Clc1ccc(-c2c(C3=NCCN3)nnn2-c2ccc(Cl)cc2)cc1	21.8 µM (inactive)	17.4 µM (inactive)	39.7 µM (inactive)	22.6 µM (inactive)	17.1 µM (inactive)	18.2 µM (inactive)	13.9 µM (inactive)	56 µM (inactive)	39.4 µM (inactive)	17.1 µM (inactive)	14.8 µM (inactive)	48.9 µM (inactive)	47.4 µM (inactive)	16.7 µM (inactive)	16.7 µM (inactive)	19.5 µM (inactive)	18.2 µM (inactive)	17.8 µM (inactive)	18.1 µM (inactive)	30.1
